Reference: PubChem BioAssay (NCI)
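How tested: cells in 96-well plates exposed to compound for 48 hours at five concentrations. GI50 is the concentration that inhibits growth by half. TGI denotes the concentration required for complete inhibition of growth.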

Experiments:
Assay in all cases: NCI-60 cell line screen, 48 h
A549 NSCLC = test system: A549 NSCLC
ACHN renal = test system: ACHN renal
HCT-116 colon = test system: HCT-116 colon
HOP-62 NSCLC = test system: HOP-62 NSCLC
OVCAR-8 ovarian = test system: OVCAR-8 ovarian
SF-268 CNS = test system: SF-268 CNS
SF-295 CNS = test system: SF-295 CNS
SK-OV-3 ovarian = test system: SK-OV-3 ovarian
SR leukemia = test system: SR leukemia
TK-10 renal = test system: TK-10 renal

SMILES | GI50 (A549 NSCLC) | TGI (A549 NSCLC) | GI50 (ACHN renal) | TGI (ACHN renal) | GI50 (HCT-116 colon) | TGI (HCT-116 colon) | GI50 (HOP-62 NSCLC) | TGI (HOP-62 NSCLC) | GI50 (OVCAR-8 ovarian) | TGI (OVCAR-8 ovarian) | GI50 (SF-268 CNS) | TGI (SF-268 CNS) | GI50 (SF-295 CNS) | TGI (SF-295 CNS) | GI50 (SK-OV-3 ovarian) | TGI (SK-OV-3 ovarian) | GI50 (SR leukemia) | TGI (SR leukemia) | GI50 (TK-10 renal) | TGI (TK-10 renal)
COc1ccc(CCN2CCCN3C2=Nc2ccccc2S3(=O)=O)cc1 | 800 nM | > 100 µM | 736 nM | > 100 µM | 444 nM | 16.4 µM | 556 nM | > 100 µM | 802 nM | > 100 µM | 2060 nM | > 100 µM | 389 nM | > 100 µM | 552 nM | > 100 µM | 193 nM | > 100 µM | 91 µM | > 100 µM
CC(C)CCSC1=CC(=O)c2ccccc2C1=O | 32600 nM | > 82.8 µM | 1840 nM | 5.69 µM | 1420 nM | 2.89 µM | 23500 nM | > 59.1 µM | 4560 nM | 17.3 µM | 6660 nM | 23.8 µM | 14700 nM | 42.2 µM | 26100 nM | > 81.2 µM | 50.6 nM | 0.616 µM | 12.4 µM | 24.8 µM
CNC(=O)c1c(NC(=O)c2ccc(C(F)(F)F)cc2)sc2c1CCC(=O)C2 | 1020 nM | 8.49 µM | 322 nM | 1.9 µM | 188 nM | 1.4 µM | 2420 nM | 10.9 µM | 466 nM | > 37.1 µM | 995 nM | > 37.9 µM | 821 nM | 2.97 µM | 2260 nM | 7.2 µM | 356 nM | > 100 µM | 0.815 µM | 21.2 µM
CCNCCC1(CC)C(=O)NC(=O)NC1=O | – | > 100 µM | – | > 100 µM | – | > 100 µM | – | > 100 µM | – | > 100 µM | – | > 100 µM | – | > 100 µM | – | > 100 µM | – | > 100 µM | – | > 100 µM
C[C@H]1CC[C@H]([C@@H](C)[C@H]2[C@@H](O)C[C@H]3[C@@H]4CC[C@H]5C[C@@H](O)CC[C@]5(C)[C@H]4CC[C@]23C)NC1 | – | 51 µM | – | 53.7 µM | – | 31.7 µM | – | 58.1 µM | – | 32.2 µM | – | 67.1 µM | – | 39.2 µM | – | 31.7 µM | – | 24.7 µM | – | 38.1 µM
CCC(=O)C1(c2ccccc2)CCN(C)CC1 | – | > 100 µM | – | > 100 µM | – | > 100 µM | – | > 100 µM | – | > 100 µM | – | > 100 µM | – | > 100 µM | – | > 100 µM | – | > 100 µM | – | > 100 µM
COc1cccc(Cn2c(-c3nonc3N)nc3ccccc32)c1 | 625 nM | > 100 µM | 612 nM | > 100 µM | 461 nM | > 100 µM | 511 nM | 48.3 µM | 610 nM | > 100 µM | 844 nM | > 100 µM | 307 nM | – | 414 nM | 25.9 µM | 310 nM | > 100 µM | 0.728 µM | 52.4 µM
CN(C)c1ncnc2c1Cc1ccccc1C(=O)N2C | – | > 100 µM | – | > 100 µM | – | > 100 µM | – | > 100 µM | – | > 100 µM | – | > 100 µM | – | > 100 µM | – | > 100 µM | – | > 100 µM | – | > 100 µM
CN[C@@H](C)C(=O)N[C@H]1CN(C(=O)CC(C)C)CC[C@H]2CC[C@@H](C(=O)NC(c3ccccc3)c3ccccc3)N2C1=O | > 100000 nM | > 100 µM | > 100000 nM | > 100 µM | > 100000 nM | > 100 µM | > 90900 nM | > 100 µM | 61600 nM | > 100 µM | > 100000 nM | > 100 µM | > 100000 nM | > 100 µM | 156 nM | 1.04 µM | > 78000 nM | > 100 µM | > 100 µM | > 100 µM
